This note sets out measurements from publication PMC4624480 (Biochemistry, 2015).

For one series, the target named is E. coli MenE (ecMenE) (Escherichia coli, UniProt P37353). Type of series: biochemical.
Series [1] deals with methicillin-resistant S. aureus (ATCC BAA-1762). Nature of the series: Growth rescue: MIC with exogenous MK4, MRSA. Type of series: cell-based. The note with it: exogenous 10 μg/mL MK4 added to the synthetic growth media.
Series [2] concerns menaquinone levels in S. aureus. The experiment in a line: Quantification of menaquinone levels by LC-MS/MS. The class given is cell-based.
A further series deals with E. coli (K-12). Nature of the series: Antibacterial activity. The note with it: aerobic, MIC-99 by visual inspection.
Another series concerns B. subtilis (ATCC 6057). The experiment in a line: Antibacterial activity. Type of series: cell-based.
Another series addresses ecMenE (wild-type) (Escherichia coli, UniProt P37353). Nature of the series: Isothermal titration calorimetry, wild-type ecMenE. Particulars: ITC, wt ecMenE. In general terms: Isothermal titration calorimetry measures the heat released or taken up as one component is titrated into another.
Series [3] deals with Vero (monkey kidney epithelial) cells. Nature of the series: Cytotoxicity, Trypan Blue. The class given is cell-based. Particulars: minimum concentration giving ~90% cell death.
Series [4] has as its system M. tuberculosis (H37Rv). The experiment in a line: Growth rescue: MIC with exogenous MK4, M. tuberculosis. Type of series: cell-based. Particulars: exogenous 10 μg/mL MK4 added to the synthetic growth media.
The subject of series [5] is B. subtilis, MRSA and M. tuberculosis. The experiment in a line: Antibacterial activity. Particulars: summary in text over B. subtilis, MRSA (S. aureus). Type of series: cell-based.
In series [6] the test system is methicillin-resistant S. aureus (ATCC BAA-1762). The experiment in a line: Antibacterial activity. Type of series: cell-based.
Series [7] deals with M. tuberculosis (H37Rv). Nature of the series: Antibacterial activity. Type of series: cell-based.
Another series is described as follows: pKa of the OSB analogue. The note with it: pKa of the OSB analogue (side chain).

Values after ≈ are worked out from the molar mass of the structure shown.

Chain of E. coli MenE (ecMenE) (P37353 whole entry): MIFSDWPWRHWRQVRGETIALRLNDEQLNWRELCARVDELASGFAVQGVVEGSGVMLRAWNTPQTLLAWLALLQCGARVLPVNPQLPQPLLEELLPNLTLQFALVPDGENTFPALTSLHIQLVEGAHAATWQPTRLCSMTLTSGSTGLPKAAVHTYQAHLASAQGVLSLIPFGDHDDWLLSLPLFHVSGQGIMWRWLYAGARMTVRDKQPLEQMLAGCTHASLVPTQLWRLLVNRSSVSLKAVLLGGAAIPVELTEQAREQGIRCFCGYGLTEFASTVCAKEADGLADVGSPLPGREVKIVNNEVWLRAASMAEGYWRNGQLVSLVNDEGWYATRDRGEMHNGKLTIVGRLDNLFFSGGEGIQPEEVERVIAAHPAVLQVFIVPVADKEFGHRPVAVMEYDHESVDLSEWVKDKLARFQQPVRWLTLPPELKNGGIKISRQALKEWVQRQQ
Chain of ecMenE (wild-type) (P37353 whole entry): as above

In general, Km refers to the concentration of substrate that gives half-maximal velocity. The kcat is the maximal rate divided by the concentration of active sites. Consider `O=C(O)CCC(=O)c1ccccc1C(=O)O` [OSB, o-succinylbenzoate], for which the Km on E. coli MenE (ecMenE) (read-out: KM OSB, wt ecMenE, pH 7.4, 25°C) came out at 1 ± 0.02 µM. Further, at E. coli MenE (ecMenE) (wt ecMenE, substrate OSB), the catalytic constant (kcat) was 0.767 ± 0.002 s⁻¹.

In general, MIC refers to the smallest concentration in the dilution series that meets the test's criterion for growth inhibition. The term Kd denotes a measure of binding affinity in units of concentration. As to `Nc1ncnc2c1ncn2[C@@H]1O[C@H](COS(=O)(=O)NC(=O)CCC(=O)c2ccccc2C(=O)O)[C@@H](O)[C@H]1O` [compound 1, OSB-AMS], the “MIC + MK4” value (in [1]; in the series with M. tuberculosis (H37Rv) [4]) was > 250 µg/mL throughout. In addition, the “decrease in MK levels” value in [2] (MRSA, 15.6 μM OSB-AMS (half-MIC)) is on record as ~ 60%. Also, the “decrease in the levels of all menaquinones” value in series [2] (S. aureus treated with OSB-AMS below its MIC) is 3–5 fold. Further, the MIC in the series with E. coli (K-12) is > 500 µg/mL; against B. subtilis (ATCC 6057) it was 62.5 µg/mL (≈ 114 µM); in series [5] it was 30 to 125 µg/mL; in series [6] (MRSA (ATCC BAA-1762)) it was 31.25 µg/mL (≈ 56.8 µM); in the series on M. tuberculosis (H37Rv) [7] it was 125 µg/mL (≈ 227 µM). Also, the ΔG at ecMenE (wild-type) is -10.0 kcal/mol. Moreover, the ΔH at ecMenE (wild-type) was -2.0 ± 0.1 kcal/mol. For the same compound, on ecMenE (wild-type) (read-out: Kd OSB-AMS), the Kd was determined as 44 ± 11 nM. In addition, the Cytotoxicity in series [3] was 125 µg/mL. In addition, the “antibacterial activity lower than the IC50 for enzyme inhibition” value in series [6] (antibacterial activity vs enzyme IC50) is given as ~ 1000 fold.

Usually pKa stands for the negative logarithm of the acid dissociation constant. MSB-AMS [compound 2] registered a pKa in the series “pKa of the OSB analogue” of 4. In addition, at E. coli MenE (ecMenE), the “effect on MenE activity” value is on record as “did not affect MenE activity” and the “inhibition of ecMenE” value was “no inhibition”.
